In publication PMC4403311, “Making water-soluble integral membrane proteins in vivo using an amphipathic protein fusion strategy” (Nature Communications, 2015):
Several values for one entry are separate records, joined by “and”; a condition that tells them apart may be missing. Identical values can stand only once. Like-named read-outs stand apart in the source and are kept apart here.

Columns and labels:
[1] = biological target: T1, detergent-solubilized EmrE (Escherichia coli, UniProt P23895); test: tryptophan fluorescence quenching titration (excitation […] nm); assay type: binding
T1 construct: full-length EmrE (110 aa), organic-extracted, solubilized in DDM, purified from E. coli BL21(DE3); unfused

[2] = biological target: the molecule itself; test: SEC; detergent-free fusion proteins after affinity purification; SEC buffer 20 mM Tris pH 7.5, 50 mM NaCl, 1 mM EDTA pH 8.0; column calibrated with Bio-Rad standards; self-association of the fusion

Row | Molecule | stoichiometry N [2] | also measured
1 | CC[n+]1c(-c2ccccc2)c2cc(N)ccc2c2ccc(N)cc21 [ethidium bromide] |  | Kd ([1]; read-out: Kd): 5.4 ± 0.47 µM
2 | c1ccc([P+](c2ccccc2)(c2ccccc2)c2ccccc2)cc1 [tetraphenylphosphonium] |  | Kd ([1]; 20 mM Tris-HCl pH 7.5, 150 mM NaCl, 0.08% w/v DDM, 10 μM protein, room temperature): higher for ApoAI*-solubilized EmrE compared with its detergent-solubilized counterpart
3 | ΔspMBP-cyt b5-ApoAI* (other) MAEQSDEAVKYYTLEEIQKHNHSKSTWLILHHKVYDLTKFLEEHPGGEEVLREQAGGDATENFEDVGHSTDAREMSKTFIIGELHPDDRPKLNKPPETLITTIDSSSSWWTNWVIPAISAVAVALMYRLYMAEDLKLLDNWDSVTSTFSKLREQLGPVTQEFWDNLEKETEGLRQEMSKDLEEVKAKVQPYLDDFQKKWQEEMELYRQKVEPLRAELQEGARQKLHELQEKLSPLGEEMRDRARAHVDALRTHLAPYSDELRQRLAARLEALKENGGARLAEYHAKATEHLSTLSEKAKPALEDLRQGLLPVLESFKVSFLSALEEYTKKLNTQ | 8 and 4 | 
4 | ΔspMBP-EmrE-ApoAI* (other) MNPYIYLGGAILAEVIGTTLMKFSEGFTRLWPSVGTIICYCASFWLLAQTLAYIPTGIAYAIWSGVGIVLISLLSWGFFGQRLDLPAIIGMMLICAGVLIINLLSRSTPHLKLLDNWDSVTSTFSKLREQLGPVTQEFWDNLEKETEGLRQEMSKDLEEVKAKVQPYLDDFQKKWQEEMELYRQKVEPLRAELQEGARQKLHELQEKLSPLGEEMRDRARAHVDALRTHLAPYSDELRQRLAARLEALKENGGARLAEYHAKATEHLSTLSEKAKPALEDLRQGLLPVLESFKVSFLSALEEYTKKLNTQ | 2 and 4 | 
